Reference: patent publication US8461146B2, “Pharmaceutical composition for the treatment of premature ejaculation” (priority 2008, dated 2013)
Entries after “also recorded” stand apart in the source; their conditions may differ.

What was measured:
[1] = clomipramine 50 mg; sertraline 50 mg to 200 mg per day; fluoxetine 40 mg and another report; cited from earlier work
[2] = tested on: premature ejaculation patients; details: clomipramine 25 mg or 50 mg per day; sertraline 50 mg to 200 mg per day; fluoxetine 40 mg; cited from earlier work
[3] = tested on: sexually active male Crl:CD (SD) rats; test: Pharmacological effect evaluation (rats): copulatory behavior test, ejaculation latency time; assay type: in vivo; details: single drugs and double-drug combinations, C 2.70, S 6.02, F 2.41 mg/kg; for Ejaculation latency time, mean ± S.E.M.: single oral, test 3 h after dosing; for Increasing rate of ELT: vs negative control
Experimental: According to the method of Brain Res Brain Res Protoc, 1997, (1):203-9, this experiment was executed by employing male and female Crl:CD (SD) rats above 20 weeks old as test animals.
The female rats were anesthetized by the intraperitoneal injection of combination of ketamine 75 mg/kg and xylazine 25 mg/kg. After performing laparotomy, the ovaries were removed and peritoneal wall was closed with sutures. 2 ml of 10% ampicillin was injected intraperitoneally and the female rats had recovery period of 7 days. Ovariectomied females were brought into artificial estrus by subcutaneous injection of 20 μg/rat of estradiol benzoate, dissolved in 0.2 ml of sesame oil, about 52 hours before the administration of a test compound, followed by s.c injection of 1 mg/rat of progestrerone, dissolved in 0.2 ml of sesame oil, about 4 hours before the administration of a test compound.
Screening test was performed in an observation cage (60×40×30 cm) with plexiglass front. Before screening test, the male rats were allowed to adapt to the observation cage for 10 minutes and then the female rats with artificial estrus were brought into the cage. If male rats had ejaculated within 30 minutes, they were regarded as sexually active ones. Selected male rats went through copulatory experience for 5 times at 3 days intervals.
The experienced males were divided into 15 groups of about 10 animals so that the mean ejaculation latency time (ELT) of groups are similar. Test compound was single orally administered.
Group 1 as a negative control was administered with 0.5% methylcellulose 1500 (Sigma Co., hereinafter as “MC 1500”). […] Groups 5˜7 were administered with double-drug combinations. Groups 8˜15 were administered with triple-drug combinations having various doses. Detailed doses are represented in Table 2 below.
After 2 hours and 50 minutes from the administration of test compounds, the male rats were allowed to adapt to the observation cage for 10 minutes. Then copulatory behavior test was initiated with the introduction of female rats with artificial estrus into the observation cage. The ejaculation latency time (ELT) as the time from the first intromission until the ejaculation was evaluated.

[4] = tested on: Patients with premature ejaculation of 60 seconds or less; test: Clinical study: treatment effect in patients with premature ejaculation; assay type: in vivo, human; details: sertraline 50.0 mg, fluoxetine 20.0 mg, triple C 7.5 + S 11.3 + F 5.9 mg, 3 weeks; for Patient no. with ELT of 10 min or over: of 20 patients per group, daily dose clomipramine 22.4 mg, 3 hours before intercourse; for Treatment effect: share of 20 patients with ELT 10 min or more, clomipramine 22.4 mg
Experimental: (§1) Patients with premature ejaculation of 60 seconds or less were divided into 4 groups of twenty people. […] A dose was taken 3 hours before the sexual intercourse begins, and the administration period was for 3 weeks. The effect of the administration of the drugs to the patients examined through interviews with the patients. A drug was determined as effective when the patient's ejaculation latency time had been 10 minutes or more.

[5] = Side effect evaluation, clinical study (sedation); assay type: in vivo, human; details: clomipramine 22.4 mg, triple C 7.5 + S 11.3 + F 5.9 mg
Experimental: as §1, with “patients.” for “patients. A drug was determined as effective when the patient's ejaculation latency time had been 10 minutes or more.”
A side effect incidence rate of sedation was investigated among patients who took each drug in Example 4.

[6] = rat, in vivo, po
Experimental: Rats were supplemented with about 200 μl of heparinized saline (20 IU/ml) at each sampling times.
The maximum plasma concentration (Cmax) and the time to reach Cmax (Tmax) were obtained from the plasma concentration-time curve. The area under the plasma concentration-time curve (AUC) was calculated by using the trapezoidal rule.

[7] = Side effect evaluation, clinical study (nausea); assay type: in vivo, human; details: sertraline 50.0 mg, triple C 7.5 + S 11.3 + F 5.9 mg
Experimental: as §1, with “patients.” for “patients. A drug was determined as effective when the patient's ejaculation latency time had been 10 minutes or more.”
A side effect incidence rate of nausea was investigated among patients who took each drug in Example 4.

## CN(C)CCCN1c2ccccc2CCc2ccc(Cl)cc21 [Clomipramine, clomipramine]
[1]
  Side effects (literature): constipation, dry-mouth, nausea, drowsiness, headache and dizziness
[2]
  Ejaculation delay effect (literature): ejaculation latency effect; also recorded: ejaculation was delayed
[3]
  Ejaculation latency time, mean ± S.E.M.: 177.2 ± 47.6 s
  Increasing rate of ELT: −14.3%
[4]
  Patient no. with ELT of 10 min or over: 15
  Treatment effect: 75%
[5]; 20 patients
  Incidence rate of sedation: 70%
[5]; of 20 patients
  No. of sedation: 14

## CNCCC(Oc1ccc(C(F)(F)F)cc1)c1ccccc1 (centres unmarked) [Fluoxetine, fluoxetine]
[1]
  Side effects (literature): drowsiness, dry-mouth, nausea, vomiting; also recorded: nausea, headache, and insomnia
[2]
  Ejaculation delay effect (literature): the ejaculation delay effect was weak
[3]
  Ejaculation latency time, mean ± S.E.M.: 141.3 ± 51.2 s
  Increasing rate of ELT: −31.7%
[4]
  Patient no. with ELT of 10 min or over: 0
  Treatment effect: the curative effect did not show up
[6]
  Cmax and AUC after triple-drug combination compared with single drug administration (in words): increases in Cmax and AUC

## CN[C@H]1CC[C@@H](c2ccc(Cl)c(Cl)c2)c2ccccc21 [Sertraline, sertraline]
[1]
  Side effects (literature): nausea, vomiting
[2]
  Ejaculation delay effect (literature): the ejaculation was delayed
[4]
  Patient no. with ELT of 10 min or over: 8
  Treatment effect: 40%
[4]; listed as sertraline
  Treatment effect: about 40%
[7]; 20 patients
  Incidence rate of nausea: 90%
[7]; of 20 patients
  No. of nausea: 18
[6]
  Cmax and AUC after triple-drug combination compared with single drug administration (in words): only AUC increased significantly
